Source: publication PMC10194981, “Chemosensory protein regulates the behavioural response of Frankliniella intonsa and Frankliniella occidentalis to tomato zonate spot virus–Infected pepper (Capsicum annuum)” (PLOS Pathogens, 2023)

How the values were obtained:
[1] = target: recombinant wild-type FoccCSP (Frankliniella occidentalis, UniProt G4Y3X1); experiment: Fluorescence (1-NPN) binding and competitive binding assay, wild-type FoccCSP; conditions: wild-type FoccCSP, displacement of 1-NPN, both 2 μM
Protocol: FintCSP1 and FoccCSP DNA were released from pEASY-T1/FintCSP1 and pEASY-T1/FoccCSP, respectively, by restriction digestion with BamHI and XhoI and cloned into the pET-30a vector (Invitrogen). The resulting construct was transformed into Transetta (DE3) Escherichia coli competent cells (Transgen). The production of recombinant FintCSP1 and FoccCSP was induced by addition of isopropyl-β-D-1-thiogalactopyranoside (IPTG, 0.2 mM) at 15°C and purified by Ni ion affinity chromatography (Sangon Biotech, Shanghai, China). The target protein was verified by 15% SDS-PAGE, and its concentration was determined with a BCA protein assay kit (Thermo Scientific, Rockford, IL, USA). The recombinant purified protein was stored at −20°C until use.
(§1) The binding affinity of FintCSP1 and FoccCSP to the fluorescent probe N-phenyl-1-naphthylamine (1-NPN) was tested using a Spectramax M2 fluorescence spectrometer (Molecular Devices, USA) as reported previously. Volatile compounds and 1-NPN were first dissolved to a concentration of 1 mM in HPLC-grade methanol and dissolved to their indicated final concentration (2–20 μM) to titrate 2 μM protein solutions resuspended in 50 mM Tris-HCl (pH 7.4). The 1-NPN/FintCSP1 or 1-NPN/FoccCSP mixture was excited at 280 nm, and the emission spectra were recorded at 415 nm. The binding constants (Kd) of FintCSP1 or FoccCSP to 1-NPN were calculated by Scatchard analysis using Prism 5 software (GraphPad, La Jolla, CA, USA). Assuming a protein activity of 100% and that the volatile compound binds to the protein in a 1:1 ratio at saturation, the dissociation constants (Ki) of FintCSP1 or FoccCSP for each ligand were calculated according to the IC50 (the concentration when the ligand replaces 50% of the probe) value of the volatile compounds. The Ki values were calculated according to the following equation: Ki = [IC50]/(1 + [1-NPN]/K1-NPN), where [1-NPN] is the free concentration of 1-NPN, and K1-NPN is the Kd of the 1-NPN/FintCSP1 or 1-NPN/FoccCSP.

[2] = target: FoccCSP-Gln87Ala (Frankliniella occidentalis, UniProt G4Y3X1, Q87A); experiment: Fluorescence (1-NPN) binding and competitive binding assay, FoccCSP mutant
Protocol: as §1
(§2) To verify the key amino acids of FintCSP1 and FoccCSP that bind to cis-3-hexenal, six amino acid residues of FintCSP1 were mutated (Lys26Ala, Phe27Ala, Thr28Ala, Glu67Ala, Ser84Ala, and the negative control residue Val132Ala) and nine amino acid residues of FoccCSP were mutated (Lys26Ala, Phe27Ala, Thr28Ala, Thr29Ala, Tyr31Ala, Asp64Ala, Glu67Ala, Gln87Ala, and the negative control residue Val132Ala) with the Fast Mutagenesis System Kit (Transgen Biotech, Beijing, China) using the pET-30a/FintCSP1 and pET-30a/FoccCSP plasmid DNA as template, respectively. Specific primers were designed using Primer Premier 5.0 according to the instructions of the Fast Mutagenesis System Kit (S1 Table). After validation by sequencing, each recombinant variant protein was produced and purified as described above, and their binding affinity to cis-3-hexenal was measured as described above.

[3] = target: FoccCSP-Lys26Ala (Frankliniella occidentalis, UniProt G4Y3X1, K26A); experiment: as above
Protocol: as §1, §2

[4] = target: FoccCSP-Tyr31Ala (Frankliniella occidentalis, UniProt G4Y3X1, Y31A); experiment: as above
Protocol: as §1, §2

[5] = test system: F. occidentalis; experiment: Y-tube olfactometer preference test; type: in vivo, Frankliniella occidentalis; conditions: dsFoccCSP-injected; vs liquid paraffin control
Protocol: F. intonsa and F. occidentalis preference tests of plant volatile cues were performed using a glass Y-tube olfactometer according to the method described by Wang et al. (2014) with minor modifications. A Y-shaped tube (1-cm inner diameter) consisted of a central tube (10 cm in length) and two arms (10 cm in length, offset by 60°) connected to two different glass odor bottles. One glass odor bottle was 50 cm in height, with a 10-cm inner diameter that contained pepper plants (14-day post-viral infection); the other glass odor bottle was 5 cm in height, with a 3-cm inner diameter for plant VOCs. The airflow in the olfactometer (200 mL/min) was filtered through activated carbon and calibrated using a flow meter at the end of each arm. To remove all visual cues, the Y-tube was positioned horizontally in a black airtight cubic box (90 cm × 60 cm × 40 cm). The tested odor sources (pepper plant VOCs) were enclosed in the odor bottles 5 min prior to each test to allow the odors to fill the arms. Thrips (2-day-old, starved for 1 h) were individually placed in the central tube and allowed to choose between the two arms. […] If the thrips had not made a choice after being placed in the straight arm for 5 min, the insect behaviour was scored as “no selection,” and it was not counted in the total data. […]

Sequence of FoccCSP-Tyr31Ala (G4Y3X1 entry or part of it Y31A): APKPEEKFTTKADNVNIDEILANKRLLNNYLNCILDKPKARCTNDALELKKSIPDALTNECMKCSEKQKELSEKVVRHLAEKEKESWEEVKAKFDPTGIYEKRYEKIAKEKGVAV
Sequence of FoccCSP-Lys26Ala (G4Y3X1 entry or part of it K26A): as the sequence (G4Y3X1 entry or part of it Y31A) above, with K7A, A12Y counted along it
Sequence of FoccCSP-Gln87Ala (G4Y3X1 entry or part of it Q87A): as the sequence (G4Y3X1 entry or part of it Y31A) above, with A12Y, Q68A counted along it
Sequence of recombinant wild-type FoccCSP (G4Y3X1 entry or part of it): as the sequence (G4Y3X1 entry or part of it Y31A) above, with A12Y counted along it

CC/C=C\CC=O [cis-3-hexenal]
IC50 ([1]; 50 mM Tris-HCl pH 7.4): 28.8 ± 0.45 µM
Ki ([1]; pH 7.4): 23.4 ± 0.36 µM
IC50 [2]: 47.47 ± 0.44 µM
Ki [2]: 43.68 ± 0.41 µM
binding affinity to cis-3-hexenal (in words) ([2]; FoccCSP-Gln87Ala compared to the wild-type protein): significantly decreased binding affinities
IC50 [3]: 36 ± 0.79 µM
Ki [3]: 32.6 ± 0.71 µM
binding affinity to cis-3-hexenal (in words) ([3]; FoccCSP-Lys26Ala compared to the wild-type protein): significantly decreased binding affinities
IC50 [4]: 43.9 ± 0.66 µM
Ki [4]: 37.4 ± 0.56 µM
binding affinity to cis-3-hexenal (in words) ([4]; FoccCSP-Tyr31Ala compared to the wild-type protein): significantly decreased binding affinities
preference of dsFoccCSP-silenced F. occidentalis (in words) [5]: no clear preference
